Test system: Cell Necrosis
Assay: Cell necrosis assay / cell viability assay (necrosis inhibitor activity)
Assay type: cell-based
Details: not given

Compound	EC50 [µM]
O=C(N1CC(Oc2ccc3ccccc3c2)C1)N1N=CC[C@H]1c1cc(F)cc(F)c1 [Compound 203, (S)(5-(3,5-difluorophenyl)-4,5-dihydro-1H-pyrazol-1-yl)(3-(naphthalen-2-yloxy)azetidin-1-yl)methanone]	0.001 to 1

Same assay, conditions: necrosis inhibitor activity; EC data for 14-191 extrapolated; read-out: EC50

Compound	EC50 [µM]
C[C@H]1CN(c2ncc(F)cn2)CCN1C(=O)N1N=CCC1c1ccccc1 (stereo in doubt) [Compound 111A, (S)-(4-(5-fluoropyrimidin-2-yl)-2-methylpiperazin-1-yl)(5-phenyl-4,5-dihydro-1H-pyrazol-1-yl)methanone]	0.001 to 1
O=C(N1CC(Oc2cc(Br)ncn2)C1)N1N=CCC1c1ccccc1 (stereo not drawn) [Compound 127, (3-((6-bromopyrimidin-4-yl)oxy)azetidin-1-yl)(5-phenyl-4,5-dihydro-1H-pyrazol-1-yl)methanone]	0.001 to 1
O=C(N1CC(Oc2ccc(F)cc2F)C1)N1N=CC[C@H]1c1cc(F)cc(F)c1 [Compound 142]	0.001 to 1
O=C(N1CCN(c2ccncn2)CC1)N1N=CCC1c1ccccc1 (stereo not drawn) [Compound 90, (5-phenyl-4,5-dihydro-1H-pyrazol-1-yl)(4-(pyrimidin-4-yl)piperazin-1-yl)methanone]	1 to 10
C[C@H]1CN(c2ncccn2)CCN1C(=O)N1N=CCC1c1ccccc1 (stereo in doubt) [Compound 112A, (S)-(2-methyl-4-(pyrimidin-2-yl)piperazin-1-yl)(5-phenyl-4,5-dihydro-1H-pyrazol-1-yl)methanone]	0.001 to 1
O=C1NCc2cc(OC3CN(C(=O)N4N=CCC4c4cc(F)cc(F)c4)C3)ccc21 (stereo not drawn) [Compound 167]	0.001 to 1
C[C@@H]1CN(c2ncc(F)cn2)C[C@@H](C)N1C(=O)N1N=CCC1c1ccccc1 (stereo partly drawn) [Compound 122, ((2R,6R)-4-(5-fluoropyrimidin-2-yl)-2,6-dimethylpiperazin-1-yl)(5-phenyl-4,5-dihydro-1H-pyrazol-1-yl)methanone]	1 to 10
O=C(N1CCCN(c2ncc(F)cn2)CC1)N1N=CCC1c1ccccc1 (stereo not drawn) [Compound 96, (4-(5-fluoropyrimidin-2-yl)-1,4-diazepan-1-yl)(5-phenyl-4,5-dihydro-1H-pyrazol-1-yl)methanone]	1 to 10
N#Cc1csc(OC2CN(C(=O)N3N=CCC3c3cc(F)cc(F)c3)C2)n1 (stereo not drawn) [Compound 131, 2-((1-(5-(3,5-difluorophenyl)-4,5-dihydro-1H-pyrazole-1-carbonyl)azetidin-3-yl)oxy)thiazole-4-carbonitrile]	0.001 to 1
CNC(=O)c1cc(OC2CN(C(=O)N3N=CCC3c3cc(F)cc(F)c3)C2)ccc1Cl (stereo not drawn) [Compound 161]	0.001 to 1
O=C(N1CC(Oc2ccccc2F)C1)N1OCC[C@H]1c1ccccc1 [Compound 77, (S)-(3-(2-fluorophenoxy)azetidin-1-yl)(3-phenylisoxazolidin-2-yl)methanone]	0.001 to 1
O=C(N1CC(Oc2cccnc2)C1)N1N=CCC1c1ccccc1 (stereo not drawn) [Compound 74, (5-phenyl-4,5-dihydro-1H-pyrazol-1-yl)(3-(pyridin-3-yloxy)azetidin-1-yl)methanone]	0.001 to 1
O=C(N1CC(Oc2ccc3ccc(=O)[nH]c3c2)C1)N1N=CCC1c1cc(F)cc(F)c1 (stereo not drawn) [Compound 181]	0.001 to 1

Same assay, conditions: necrosis inhibitor activity; compounds outside 14-191; read-out: EC50

Compound	EC50 [µM]
N#Cc1ccc(C=C2CN(C(=O)N3N=CC[C@H]3c3cc(F)cc(F)c3)C2)c(F)n1 [Compound 323, (S)-5-((1-(5-(3,5-difluorophenyl)-4,5-dihydro-1H-pyrazole-1-carbonyl)azetidin-3-ylidene)methyl)-6-fluoropicolinonitrile]	0.001 to 1
O=C(N1CC(=Cc2ccc3cn[nH]c3c2)C1)N1N=CC[C@H]1c1cc(F)cc(F)c1 [Compound 310, (S)-(3-((1H-indazol-6-yl)methylene)azetidin-1-yl)(5-(3,5-difluorophenyl)-4,5-dihydro-1H-pyrazol-1-yl)methanone]	0.001 to 1
N#Cc1cccc(C2CC=NN2C(=O)N2CC(Oc3cc4[nH]nc(F)c4cc3F)C2)c1 (stereo not drawn) [Compound 380, 3-(1-(3-((3,5-difluoro-1H-indazol-6-yl)oxy)azetidine-1-carbonyl)-4,5-dihydro-1H-pyrazol-5-yl)benzonitrile]	0.001 to 1
N#Cc1nccc(N[C@@H]2CCN(C(=O)N3N=CC[C@H]3c3cc(F)cc(F)c3)C2)n1 [Compound 348]	0.001 to 1
O=C(N1CC(Oc2ccc3ncc(=O)[nH]c3n2)C1)N1N=CC[C@H]1c1cc(F)cc(F)c1 [Compound 256, (S)-6-((1-(5-(3,5-difluorophenyl)-4,5-dihydro-1H-pyrazole-1-carbonyl)azetidin-3-yl)oxy)pyrido[2,3-b]pyrazin-3(4H)-one]	0.001 to 1
CC1CCCN(C(=O)N2N=CCC2c2ccccc2)C1 (stereo not drawn) [Compound 9, (3-methylpiperidin-1-yl)(5-phenyl-4,5-dihydro-1H-pyrazol-1-yl)methanone]	0.001 to 1
Nc1nccc(O[C@@H]2CCN(C(=O)N3N=CC[C@H]3c3cc(F)cc(F)c3)C2)n1 [Compound 367, ((R)-3-((2-aminopyrimidin-4-yl)oxy)pyrrolidin-1-yl)((S)-5-(3,5-difluorophenyl)-4,5-dihydro-1H-pyrazol-1-yl)methanone]	0.001 to 1
O=C(N1CC[C@@H](Oc2cccc(NCCN3CCOCC3)n2)C1)N1N=CC[C@H]1c1cc(F)cc(F)c1 [Compound 358]	0.001 to 1
CC(=O)Nc1ccnc(N2CCN(C(=O)N3N=CC[C@H]3c3cc(F)cc(F)c3)CC2)n1 [Compound 225]	0.001 to 1
Cc1nnc(N2CCN(C(=O)N3N=CC[C@H]3c3cc(F)cc(F)c3)CC2)s1 [Compound 384, (S)-(5-(3,5-difluorophenyl)-4,5-dihydro-1H-pyrazol-1-yl)(4-(5-methyl-1,3,4-thiadiazol-2-yl)piperazin-1-yl)methanone]	0.001 to 1
O=C(N1CC(Oc2cc3[nH]nc(F)c3cc2F)C1)N1N=CCC1c1cncc(F)c1 (stereo not drawn) [Compound 378, (3-((3,5-difluoro-1H-indazol-6-yl)oxy)azetidin-1-yl)(5-(5-fluoropyridin-3-yl)-4,5-dihydro-1H-pyrazol-1-yl)methanone]	0.001 to 1
O=C(N1CC(Oc2ccc(Cl)nc2F)C1)N1N=CC[C@H]1c1cc(F)cc(F)c1 [Compound 338, (S)-(3-((6-chloro-2-fluoropyridin-3-yl)oxy)azetidin-1-yl)(5-(3,5-difluorophenyl)-4,5-dihydro-1H-pyrazol-1-yl)methanone]	0.001 to 1
O=C(N1CC(=Cc2cc3[nH]nc(F)c3cc2F)C1)N1N=CC[C@H]1c1cc(F)cc(F)c1 [Compound 301, (S)-(3-((3,5-difluoro-1H-indazol-6-yl)methylene)azetidin-1-yl)(5-(3,5-difluorophenyl)-4,5-dihydro-1H-pyrazol-1-yl)methanone]	0.001 to 1
N#Cc1ccc(O[C@@H]2CCN(C(=O)N3N=CC[C@H]3c3cc(F)cc(F)c3)C2)c(Cl)n1 [Compound 365, 6-chloro-5-(((R)-1-((S)-5-(3,5-difluorophenyl)-4,5-dihydro-1H-pyrazole-1-carbonyl)pyrrolidin-3-yl)oxy)picolinonitrile]	0.001 to 1
O=C(N1CC(Oc2nc(Cl)ncc2F)C1)N1N=CC[C@H]1c1cc(F)cc(F)c1 [Compound 267]	0.001 to 1
O=C(N1CC(Oc2nc(NCCO)ccc2F)C1)N1N=CC[C@H]1c1cc(F)cc(F)c1 [Compound 252, (S)(5-(3,5-difluorophenyl)-4,5-dihydro-1H-pyrazol-1-yl)(3-((3-fluoro-6-((2-hydroxyethyl)amino)pyridin-2-yl)oxy)azetidin-1-yl)methanone]	0.001 to 1

Source: patent US12662469B2 (SIRONAX LTD, priority 2018, dated 2026)
